In US20240382483A1, “HETEROCYCLIC EGFR INHIBITORS FOR USE IN THE TREATMENT OF CANCER” (Blueprint Medicines Corporation, priority 2021, published 2024):
Counter-ions that a name gives are not always drawn. Like-named read-outs stand apart in the source and are kept apart here.

Key:
[1] = molecular target: T1, EGFR (L858R T790M C797S) (Homo sapiens, UniProt P00533, C797S/L858R/T790M); assay: Biochemical EGFR inhibition assay (Caliper mobility shift), EGFR LRTMCS
T1 construct: purchased SignalChem E10-122VG
In short: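 Caliper mobility shift read-out: product and substrate peptides separated by electrophoresis and quantified. Reactions at 25° C. taken to 10–20% peptide phosphorylation, quenched with 35 mM EDTA. Apparent IC50 from percent activity vs log [compound].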

[2] = molecular target: T2, intracellular phosphorylation of EGFR in NCI-H1975 cell line that harbors the EGFR L858R T790M mutations (Homo sapiens, UniProt P00533, L858R/T790M); assay: NCI-H1975 pEGFR AlphaLISA assay; assay type: cell-based; details: NCI-H1975 cells (EGFR L858R T790M), p-EGFR (Tyr1068), 4-5 hours incubation; read-out: Ext pEGFR H1975 GMean IC50 (nM) Protocol: @Pharmaron AlphaLISA (Num)
T2 construct: NCI-H1975 cell line that harbors the EGFR L858R T790M mutations (ATCC, CRL-5908); host or cells: NCI-H1975
Description: On the next day, the test compounds and DMSO control were added into H1975 cell plate followed by incubation at 37C/5% CO2 for 4-5 hours. […] Then 5 μL of a donor bead mix was added to each well followed by overnight incubation at room temperature in dark. On the next day, the plate was read at a compatible plate reader to obtain pEGFR signal. Percent of pEGFR inhibition was plotted against log concentration of compounds to generate IC50 values.

[3] = LRTMCS (PH) IC50 (nM) @ 1 mM ATP (Num), EGFR LRTMCS mutant

T2 sequence (P00533 25-1210 T790M/L858R): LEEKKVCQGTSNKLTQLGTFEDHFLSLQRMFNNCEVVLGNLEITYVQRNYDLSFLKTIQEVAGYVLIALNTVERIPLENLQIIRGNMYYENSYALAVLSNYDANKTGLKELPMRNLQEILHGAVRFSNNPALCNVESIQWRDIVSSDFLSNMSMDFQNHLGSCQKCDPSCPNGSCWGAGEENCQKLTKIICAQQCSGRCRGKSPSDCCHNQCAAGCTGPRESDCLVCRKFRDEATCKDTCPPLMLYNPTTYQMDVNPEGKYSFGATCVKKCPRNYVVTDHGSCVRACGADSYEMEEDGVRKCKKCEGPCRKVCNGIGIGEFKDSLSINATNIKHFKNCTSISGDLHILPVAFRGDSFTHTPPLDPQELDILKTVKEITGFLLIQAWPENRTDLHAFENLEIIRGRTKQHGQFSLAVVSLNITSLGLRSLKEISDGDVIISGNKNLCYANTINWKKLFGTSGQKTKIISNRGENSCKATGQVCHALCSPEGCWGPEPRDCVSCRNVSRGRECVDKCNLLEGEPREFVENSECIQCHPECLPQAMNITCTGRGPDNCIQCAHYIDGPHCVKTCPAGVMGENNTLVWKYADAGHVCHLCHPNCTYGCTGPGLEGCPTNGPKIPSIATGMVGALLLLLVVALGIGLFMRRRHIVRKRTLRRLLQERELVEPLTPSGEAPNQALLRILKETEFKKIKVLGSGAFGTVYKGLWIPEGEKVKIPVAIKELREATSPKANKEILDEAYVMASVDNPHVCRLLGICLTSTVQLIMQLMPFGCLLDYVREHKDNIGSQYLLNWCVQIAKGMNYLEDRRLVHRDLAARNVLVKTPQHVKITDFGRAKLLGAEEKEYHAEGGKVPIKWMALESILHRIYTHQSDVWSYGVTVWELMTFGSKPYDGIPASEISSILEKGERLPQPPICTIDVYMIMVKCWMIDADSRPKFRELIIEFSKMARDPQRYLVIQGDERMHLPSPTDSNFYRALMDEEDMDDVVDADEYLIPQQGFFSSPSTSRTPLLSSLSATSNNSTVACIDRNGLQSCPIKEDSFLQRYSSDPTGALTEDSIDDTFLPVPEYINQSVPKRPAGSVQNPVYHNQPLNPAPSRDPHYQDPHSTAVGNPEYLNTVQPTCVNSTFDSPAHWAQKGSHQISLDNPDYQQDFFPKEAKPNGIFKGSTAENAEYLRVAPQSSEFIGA
T1 sequence (P00533 25-1210 T790M/C797S/L858R): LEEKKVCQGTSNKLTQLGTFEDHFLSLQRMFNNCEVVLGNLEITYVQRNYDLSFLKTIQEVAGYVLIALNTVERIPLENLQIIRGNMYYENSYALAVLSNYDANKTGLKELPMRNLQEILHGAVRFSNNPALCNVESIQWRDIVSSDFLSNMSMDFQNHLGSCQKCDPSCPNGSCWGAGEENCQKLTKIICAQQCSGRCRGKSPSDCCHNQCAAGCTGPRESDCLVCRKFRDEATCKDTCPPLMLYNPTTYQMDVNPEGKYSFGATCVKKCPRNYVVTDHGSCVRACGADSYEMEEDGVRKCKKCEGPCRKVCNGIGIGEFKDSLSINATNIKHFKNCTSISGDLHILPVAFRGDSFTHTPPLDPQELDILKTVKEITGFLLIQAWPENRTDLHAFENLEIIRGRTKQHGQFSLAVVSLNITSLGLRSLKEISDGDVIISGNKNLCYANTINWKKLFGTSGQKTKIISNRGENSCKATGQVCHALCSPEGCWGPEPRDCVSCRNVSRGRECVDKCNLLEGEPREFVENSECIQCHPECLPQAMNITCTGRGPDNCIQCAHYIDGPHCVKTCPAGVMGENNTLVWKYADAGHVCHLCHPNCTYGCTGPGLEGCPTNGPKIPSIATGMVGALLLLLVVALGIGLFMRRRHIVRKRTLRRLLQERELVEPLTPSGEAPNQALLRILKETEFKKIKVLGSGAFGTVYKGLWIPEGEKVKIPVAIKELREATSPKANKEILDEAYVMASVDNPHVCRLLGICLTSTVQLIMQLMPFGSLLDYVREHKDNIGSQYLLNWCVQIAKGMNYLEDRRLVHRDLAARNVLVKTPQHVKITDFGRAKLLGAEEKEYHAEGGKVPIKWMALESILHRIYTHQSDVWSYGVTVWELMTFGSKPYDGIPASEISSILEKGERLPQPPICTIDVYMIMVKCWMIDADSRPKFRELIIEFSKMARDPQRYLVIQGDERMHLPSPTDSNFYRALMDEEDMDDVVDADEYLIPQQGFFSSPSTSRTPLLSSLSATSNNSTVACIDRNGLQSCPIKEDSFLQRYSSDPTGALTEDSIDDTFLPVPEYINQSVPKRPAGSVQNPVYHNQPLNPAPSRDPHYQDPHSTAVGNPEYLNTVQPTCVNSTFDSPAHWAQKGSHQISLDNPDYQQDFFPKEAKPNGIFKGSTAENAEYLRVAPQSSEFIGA

Row | SMILES | IC50 ([1]; read-out: LRTMCS (PH) IC50 (nM) @ 1 mM ATP (Num), EGFR LRTMCS mutant) | IC50 [2] | IC50 [1, 3]
1 | CO[C@H]1CCN(c2nccc(Nc3cc4c(C(C)C)cnc(N5CCC56CN(C)C6)c4cn3)n2)C[C@@]1(C)F (single isomer, unassigned) [Example 43, N-(2-((3R,4S)-3-fluoro-4-methoxy-3-methylpiperidin-1-yl)pyrimidin-4-yl)-5-isopropyl-8-(6-methyl-1,6-diazaspiro[3.3]heptan-1-yl)-2,7-naphthyridin-3-amine or N-(2-((3S,4R)-3-fluoro-4-methoxy-3-methylpiperidin-1-yl)pyrimidin-4-yl)-5-isopropyl-8-(6-methyl-1,6-diazaspiro[3.3]heptan-1-yl)-2,7-naphthyridin-3-amine] | – | > 50 nM | 15 to 20 nM
2 | CC(C)c1cnc(N2CC[C@H]2C)c2cnc(Nc3ccnc(N4CCC(O)(CO)CC4)n3)cc12 [Example 131, (R)-4-(hydroxymethyl)-1-(4-((5-isopropyl-8-(2-methylazetidin-1-yl)-2,7-naphthyridin-3-yl)amino)pyrimidin-2-yl)piperidin-4-ol] | – | > 50 nM | 15 to 20 nM
3 | CO[C@@H]1CCN(c2nccc(Nc3cc4c(C(C)C)cnc(N5CC(F)C5)c4cn3)n2)C[C@@H]1O (single isomer, unassigned) [Example 118, (3S,4R)-1-(4-((8-(3-fluoroazetidin-1-yl)-5-isopropyl-2,7-naphthyridin-3-yl)amino)pyrimidin-2-yl)-4-methoxypiperidin-3-ol or (3R,4S)-1-(4-((8-(3-fluoroazetidin-1-yl)-5-isopropyl-2,7-naphthyridin-3-yl)amino)pyrimidin-2-yl)-4-methoxypiperidin-3-ol] | – | > 50 nM | 20 to 30 nM
4 | Cc1nnc(C2CN(c3ccc(C(C)C)c4cc(Nc5ccnc(N6CC[C@@H](O)[C@@](C)(F)C6)n5)ncc34)C2)o1 [Example 104, (3S,4R)-3-fluoro-1-(4-((5-isopropyl-8-(3-(5-methyl-1,3,4-oxadiazol-2-yl)azetidin-1-yl)isoquinolin-3-yl)amino)pyrimidin-2-yl)-3-methylpiperidin-4-ol] | – | < 10 nM | < 15 nM
5 | CC(C)c1nnc(N2CCCC2)c2cnc(Nc3ccnc(N4CC[C@@H](O)[C@@](C)(F)C4)n3)cc12 [Example 114, (3S,4R)-3-fluoro-1-(4-((1-isopropyl-4-(pyrrolidin-1-yl)pyrido[3,4-d]pyridazin-7-yl)amino)pyrimidin-2-yl)-3-methylpiperidin-4-ol] | – | > 50 nM | 30 to 100 nM
6 | CC(C)c1cnc(N2CC[C@@H]2C)c2cnc(Nc3ccnc(N4CC[C@H](O)[C@H](F)C4)n3)cc12 (single isomer, unassigned) [Example 160, (3R,4S)-3-fluoro-1-(4-((5-isopropyl-8-((S)-2-methylazetidin-1-yl)-2,7-naphthyridin-3-yl)amino)pyrimidin-2-yl)piperidin-4-ol or (3R,4S)-3-fluoro-1-(4-((5-isopropyl-8-((R)-2-methylazetidin-1-yl)-2,7-naphthyridin-3-yl)amino)pyrimidin-2-yl)piperidin-4-ol] | – | 10 to 20 nM | < 15 nM
7 | CC(C)c1cnc(N2CC(n3ccnc3)C2)c2cnc(Nc3ccnc(N4CC[C@@H](O)[C@@](C)(F)C4)n3)cc12 [Example 219, (3S,4R)-1-(4-((8-(3-(1H-imidazol-1-yl)azetidin-1-yl)-5-isopropyl-2,7-naphthyridin-3-yl)amino)pyrimidin-2-yl)-3-fluoro-3-methylpiperidin-4-ol] | – | > 50 nM | 20 to 30 nM
8 | CO[C@@H]1CCN(c2cc(Nc3cc4c(C(C)C)ccc(N5CC(n6ccnn6)C5)c4cn3)ccn2)C[C@@H]1O (single isomer, unassigned) [Example 126, (3S,4R)-1-(4-((8-(3-(1H-1,2,3-triazol-1-yl)azetidin-1-yl)-5-isopropylisoquinolin-3-yl)amino)pyridin-2-yl)-4-methoxypiperidin-3-ol or (3R,4S)-1-(4-((8-(3-(1H-1,2,3-triazol-1-yl)azetidin-1-yl)-5-isopropylisoquinolin-3-yl)amino)pyridin-2-yl)-4-methoxypiperidin-3-ol] | – | 10 to 20 nM | < 15 nM
9 | CC(C)c1cnc(-c2nnc(C(C)(C)O)o2)c2cnc(Nc3ccnc(N4CC[C@@H](O)[C@@](C)(F)C4)n3)cc12 [Example 27, (3S,4R)-3-fluoro-1-(4-((8-(5-(2-hydroxypropan-2-yl)-1,3,4-oxadiazol-2-yl)-5-isopropyl-2,7-naphthyridin-3-yl)amino)pyrimidin-2-yl)-3-methylpiperidin-4-ol] | – | > 50 nM | < 15 nM
10 | CC(C)c1cnc(N2C[C@H](n3ccnn3)[C@H]2C)c2cnc(Nc3ccnc(N4CC[C@@](C)(O)[C@@H](F)C4)n3)cc12 [Example 144, (3S,4R)-3-fluoro-1-(4-((5-isopropyl-8-((2R,3S)-2-methyl-3-(1H-1,2,3-triazol-1-yl)azetidin-1-yl)-2,7-naphthyridin-3-yl)amino)pyrimidin-2-yl)-4-methylpiperidin-4-ol] | – | 30 to 50 nM | 15 to 20 nM

Next, values leading:

Row | IC50 ([1]; read-out: LRTMCS (PH) IC50 (nM) @ 1 mM ATP (Num), EGFR LRTMCS mutant) | IC50 [2] | IC50 [1, 3] | SMILES
11 | < 15 nM | 10 to 20 nM | – | C[C@H](CC#N)c1cnc(N2CC[C@H]2C)c2cnc(Nc3ccnc(N4CC[C@@H](O)[C@@](C)(F)C4)n3)cc12 (single isomer, unassigned) [Example 37, (R)-3-(6-((2-((3S,4R)-3-fluoro-4-hydroxy-3-methylpiperidin-1-yl)pyrimidin-4-yl)amino)-1-((R)-2-methylazetidin-1-yl)-2,7-naphthyridin-4-yl)butanenitrile or (S)-3-(6-((2-((3S,4R)-3-fluoro-4-hydroxy-3-methylpiperidin-1-yl)pyrimidin-4-yl)amino)-1-((R)-2-methylazetidin-1-yl)-2,7-naphthyridin-4-yl)butanenitrile]
12 | – | > 50 nM | < 15 nM | CC(C)c1cnc(N2C[C@@H](F)[C@@H](F)C2)c2cnc(Nc3ccnc(N4CC[C@@H](O)[C@@](C)(F)C4)n3)cc12 [Example 56, (3S,4R)-1-(4-((8-(cis-3,4-difluoropyrrolidin-1-yl)-5-isopropyl-2,7-naphthyridin-3-yl)amino)pyrimidin-2-yl)-3-fluoro-3-methylpiperidin-4-ol]
13 | – | 10 to 20 nM | < 15 nM | C[C@@H]1CCN1c1ncc([C@@H](C)C(C)(C)O)c2cc(Nc3ccnc(N4CC[C@@H](O)[C@@](C)(F)C4)n3)ncc12 (single isomer, unassigned) [Example 186, (3S,4R)-3-fluoro-1-(4-((5-((R)-3-hydroxy-3-methylbutan-2-yl)-8-((R)-2-methylazetidin-1-yl)-2,7-naphthyridin-3-yl)amino)pyrimidin-2-yl)-3-methylpiperidin-4-ol or (3S,4R)-3-fluoro-1-(4-((5-((S)-3-hydroxy-3-methylbutan-2-yl)-8-((R)-2-methylazetidin-1-yl)-2,7-naphthyridin-3-yl)amino)pyrimidin-2-yl)-3-methylpiperidin-4-ol]
14 | – | > 50 nM | 30 to 100 nM | CC(C)c1cnc(N2CC(CP(C)(C)=O)C2)c2cnc(Nc3ccnc(N4CC[C@@H](O)[C@@](C)(F)C4)n3)cc12 [Example 79, ((1-(6-((2-((3S,4R)-3-fluoro-4-hydroxy-3-methylpiperidin-1-yl)pyrimidin-4-yl)amino)-4-isopropyl-2,7-naphthyridin-1-yl)azetidin-3-yl)methyl)dimethylphosphine oxide]
15 | – | 10 to 20 nM | < 15 nM | CC(C)c1cnc(N2CC[C@H]2CN(C)C)c2cnc(Nc3ccnc(N4CC[C@@H](O)[C@@](C)(F)C4)n3)cc12 [Example 48, (3S,4R)-1-(4-((8-((S)-2-((dimethylamino)methyl)azetidin-1-yl)-5-isopropyl-2,7-naphthyridin-3-yl)amino)pyrimidin-2-yl)-3-fluoro-3-methylpiperidin-4-ol trifluoroacetate]
16 | – | 10 to 20 nM | < 15 nM | CC(C)c1cnc(N2CC(C)(C(=O)N(C)C)C2)c2cnc(Nc3ccnc(N4CC[C@@H](O)[C@@](C)(F)C4)n3)cc12 [Example 93, 1-(6-((2-((3S,4R)-3-fluoro-4-hydroxy-3-methylpiperidin-1-yl)pyrimidin-4-yl)amino)-4-isopropyl-2,7-naphthyridin-1-yl)-N,N,3-trimethylazetidine-3-carboxamide]
17 | – | 30 to 50 nM | < 15 nM | CNC(=O)C1CN(c2ncc(C(C)C)c3cc(Nc4ccnc(N5CC[C@@H](O)[C@@](C)(F)C5)n4)ncc23)C1 [Example 80, 1-(6-((2-((3S,4R)-3-fluoro-4-hydroxy-3-methylpiperidin-1-yl)pyrimidin-4-yl)amino)-4-isopropyl-2,7-naphthyridin-1-yl)-N-methylazetidine-3-carboxamide]
18 | – | < 10 nM | < 15 nM | CO[C@H]1CN(c2ncc(C(C)C)c3cc(Nc4ccnc(N5CC[C@@H](O)[C@@](C)(F)C5)n4)ncc23)[C@@H]1C [Example 107, (3S,4R)-3-fluoro-1-(4-((5-isopropyl-8-((2R,3S)-3-methoxy-2-methylazetidin-1-yl)-2,7-naphthyridin-3-yl)amino)pyrimidin-2-yl)-3-methylpiperidin-4-ol]
